Experimental data as given in EPA's ToxRefDB 2.

Assays:
rabbit = details: Prenatal developmental toxicity study, himalayan, Oral, Gavage/Intubation, dose end: 18 GD
dog = details: Chronic toxicity, beagle, Oral, Feed, dose end: 1 year, group: cholinesterase
mouse [1] = details: Combined chronic toxicity/carcinogenicity, b6c3f1, Oral, Feed, dose end: 2 year
rat [2] = details: Subchronic oral toxicity in rodents, wistar, Feed, dose end: 86 day
mouse [3] = details: Subchronic oral toxicity in rodents, swiss albino, Gavage/Intubation, dose end: 14 day, group: systemic
rat [4] = details: Multigenerational reproductive toxicity study, sprague dawley, Oral, Feed, dose end: 2 generation
mouse [5] = details: Chronic toxicity, b6c3f1, Oral, Feed, dose end: 2 year, group: systemic
rat [6] = details: Combined chronic toxicity/carcinogenicity, fischer, Oral, Feed, dose end: 2 year, group: systemic
mouse [7] = details: Subchronic oral toxicity in rodents, cd1, Feed, dose end: 14 week, group: systemic
mouse [8] = details: Subchronic oral toxicity in rodents, b6c3f1, Feed, dose end: 14 week, group: systemic, systemic / organ weight / liver / absolute + systemic / organ weight / liver / relative to body weight + systemic / pathology microscopic / …
mouse [9] = details: Chronic toxicity; cd1; Oral; Feed; dose end: 57 week; group: systemic; systemic / pathology microscopic / heart / amyloid deposition + systemic / pathology microscopic / liver / eosinophilic focus + systemic / …
[10] = group: cholinesterase, cholinesterase / cholinesterase / cholinesterase / erythrocyte cholinesterase (che)
[11] = group: maternal, reproductive / reproductive performance / resorptions / resorptions + reproductive / reproductive performance / aborted / aborted + systemic…
[12] = cholinesterase / cholinesterase / cholinesterase / brain cholinesterase (che) + cholinesterase / cholinesterase / cholinesterase / plasma …
[13] = cholinesterase / cholinesterase / cholinesterase / brain cholinesterase (che) + cholinesterase / cholinesterase / cholinesterase / …
[14] = group: systemic, systemic / in life observation / body weight / body weight + systemic / in life observation / body weight / body weight gain + systemic / in…
[15] = group: systemic, systemic / organ weight / adrenal gland / nos
[16] = group: cholinesterase, cholinesterase / cholinesterase / cholinesterase / brain (regional) cholinesterase (che) + cholinesterase / cholinesterase / cholinesterase…
[17] = group: systemic, systemic / pathology microscopic / seminal vesicle / colloid content
[18] = systemic / hematology / sulphemoglobin / sulphemoglobin
[19] = systemic / hematology / sulphemoglobin / sulphemoglobin + systemic / hematology / heinz body / heinz body + systemic / hematology / …
[20] = group: offspring, systemic / in life observation / body weight / offspring (pup) weight
[21] = group: parental, systemic / hematology / lymphocyte / lymphocyte + systemic / hematology / platelet / platelet + systemic / organ weight / spleen / nos + …
[22] = systemic / pathology microscopic / liver / hypertrophy + systemic / pathology microscopic / thyroid gland / hyperplasia
[23] = systemic / pathology microscopic / liver / hypertrophy + systemic / pathology microscopic / thyroid gland / hyperplasia + systemic / in life…
[24] = systemic / in life observation / body weight / body weight + systemic / pathology microscopic / kidney / adenoma + systemic / in life …
[25] = systemic / pathology microscopic / kidney / nephropathy
[26] = systemic / in life observation / clinical signs / grip strength + systemic / organ weight / liver / absolute + systemic / organ weight / …
[27] = systemic / organ weight / liver / absolute + systemic / pathology microscopic / liver / hypertrophy

SMILES: CCOP(=S)(Oc1cnc(C(C)(C)C)nc1)OC(C)C (stereo not given) [Tebupirimfos]
- LEL (rabbit; [10]): 0.3 mg/kg/day
- LOAEL (rabbit; [10]): 0.3 mg/kg/day
- NEL (rabbit; [10]): 0.1 mg/kg/day
- NOAEL (rabbit; [10]): 0.1 mg/kg/day
- LOAEL (rabbit; group: maternal, reproductive / reproductive performance / resorptions / resorptions + reproductive / offspring survival early / live fetuses / live fetuses): 0.3 mg/kg/day
- LEL (rabbit; group: maternal, reproductive / reproductive performance / resorptions / resorptions + reproductive / offspring survival early / live fetuses / live fetuses…): 0.3 mg/kg/day
- NEL (rabbit; [11]): 0.1 mg/kg/day
- NOAEL (rabbit; [11]): 0.1 mg/kg/day
- LEL (dog; [12]): 0.005 mg/kg/day
- NEL (dog; [12]): < 0.005 mg/kg/day
- LOAEL (dog; [13]): 0.125 mg/kg/day
- NOAEL (dog; [13]): 0.02 mg/kg/day
- LEL (mouse [1]; [10]): 0.16 mg/kg/day
- LOAEL (mouse [1]; [10]): 0.16 mg/kg/day
- NEL (mouse [1]; [10]): < 0.16 mg/kg/day
- NOAEL (mouse [1]; [10]): < 0.16 mg/kg/day
- LOAEL (mouse [1]; [14]): 38.8 mg/kg/day
- NOAEL (mouse [1]; [14]): 4.53 mg/kg/day
- LEL (mouse [1]; [15]): 0.52 mg/kg/day
- NEL (mouse [1]; [15]): < 0.52 mg/kg/day
- LOAEL (rat [2]; [16]): 1 mg/kg/day
- NEL (rat [2]; [16]): 0.2 mg/kg/day
- NOAEL (rat [2]; [16]): 0.3 mg/kg/day
- LEL (rat [2]; [10]): 0.3 mg/kg/day
- LOAEL (rat [2]; group: systemic, systemic / in life observation / body weight / body weight gain + systemic / in life observation / food consumption / food consumption): 3.6 mg/kg/day
- NOAEL (rat [2]; group: systemic, systemic / in life observation / body weight / body weight gain + systemic / in life observation / food consumption / food consumption + …): 1 mg/kg/day
- LEL (rat [2]; [17]): 0.2 mg/kg/day
- NEL (rat [2]; [17]): < 0.2 mg/kg/day

SMILES: O=C(NC(=O)c1c(F)cccc1F)Nc1ccc(Cl)cc1 [Diflubenzuron]
- LEL (mouse [3]; [18]): 200 mg/kg/day
- LOAEL (mouse [3]; [18]): 200 mg/kg/day
- NEL (mouse [3]; [19]): 40 mg/kg/day
- NOAEL (mouse [3]; [19]): 40 mg/kg/day
- LEL (rat [4]; [20]): 3800 mg/kg/day
- LOAEL (rat [4]; [20]): 3800 mg/kg/day
- NEL (rat [4]; [20]): 360 mg/kg/day
- NOAEL (rat [4]; [20]): 360 mg/kg/day
- LEL (rat [4]; [21]): 36 mg/kg/day
- LOAEL (rat [4]; [21]): 36 mg/kg/day
- NEL (rat [4]; [21]): < 36 mg/kg/day
- NOAEL (rat [4]; [21]): < 36 mg/kg/day

SMILES: O=C1Nc2ccc(Cl)cc2C(c2ccccc2)=NC1O (stereo not given) [Oxazepam]
- LOAEL (mouse [5]; [22]): 12 mg/kg/day
- NOAEL (mouse [5]; [22]): < 12 mg/kg/day
- LEL (mouse [5]; [23]): 12 mg/kg/day
- NEL (mouse [5]; [23]): < 12 mg/kg/day
- LOAEL (rat [6]; [24]): > 630 mg/kg/day
- NOAEL (rat [6]; [24]): ≥ 630 mg/kg/day
- LEL (rat [6]; [25]): 25 mg/kg/day
- NEL (rat [6]; [25]): < 25 mg/kg/day
- LOAEL (mouse [7]; [26]): > 1400 mg/kg/day
- NOAEL (mouse [7]; [26]): ≥ 1400 mg/kg/day
- LEL (mouse [7]; [27]): 80 mg/kg/day
- NEL (mouse [7]; [27]): < 80 mg/kg/day
- LEL (mouse [8]): 100 mg/kg/day
- LOAEL (mouse [8]): > 1810 mg/kg/day
- NEL (mouse [8]): < 100 mg/kg/day
- NOAEL (mouse [8]): ≥ 1810 mg/kg/day
- LEL (mouse [9]): 270 mg/kg/day
- LOAEL (mouse [9]): 270 mg/kg/day
- NEL (mouse [9]): < 270 mg/kg/day
- NOAEL (mouse [9]): < 270 mg/kg/day
